Laboratory results published in patent US12552753B2, “Methods and compositions for targeting Tregs using CCR8 inhibitors” (Nanjing Immunophage Biomedical Co., Ltd., priority 2020, dated 2026).
Structures can show the parent of a compound that is named as a salt.

Each molecule was assayed against CCR8 (Homo sapiens, UniProt P51685) (assay: Tango assay (Tango-CCR8-Gal4-CHO-K1 cells, CCL1-stimulated, ONE-Glo luminescence)). Conditions: Tango Assay IC50, Inhibition of CCR8 Tango cell in vitro.
Sequence of CCR8 (P51685 whole entry, the tested form may be a part): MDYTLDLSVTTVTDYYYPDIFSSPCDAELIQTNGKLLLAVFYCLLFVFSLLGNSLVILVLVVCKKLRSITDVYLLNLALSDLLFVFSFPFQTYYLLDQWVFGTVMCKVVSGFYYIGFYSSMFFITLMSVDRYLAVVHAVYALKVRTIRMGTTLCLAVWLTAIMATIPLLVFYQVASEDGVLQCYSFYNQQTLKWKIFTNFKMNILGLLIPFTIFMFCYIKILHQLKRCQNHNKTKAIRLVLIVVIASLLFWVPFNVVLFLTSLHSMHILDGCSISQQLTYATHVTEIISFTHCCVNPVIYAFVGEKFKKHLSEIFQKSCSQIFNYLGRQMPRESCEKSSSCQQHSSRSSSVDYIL

SMILES | IC50 [µM]
CC(C)(C)OC(=O)N1CCC(NS(=O)(=O)c2ccc(-c3nc4ccccc4[nH]3)cc2)CC1 [Compound 102, tert-butyl 4-(4-(1H-benzo[d]imidazol-2-yl)phenylsulfonamido) piperidine-1-carboxylate] | > 10
CN1CCN(C(=O)N2CCC(NS(=O)(=O)c3ccc(-c4nc5ccccc5[nH]4)cc3)CC2)CC1 [Compound 103, 4-(1H-benzo[d]imidazol-2-yl)-N-(1-(4-methylpiperazine-1-carbonyl)piperidin-4-yl)benzenesulfonamide] | 0.31
Cc1ccccc1C(=O)Nc1ccc(S(=O)(=O)NC2CCC23CCN(C(=O)OC(C)(C)C)CC3)c2ccccc12 (stereo not shown) [Compound 89, tert-butyl 1-(4-(2-methylbenzamido)naph-thalene-1-sulfonamido)-7-azaspiro[3.5]nonane-7-carboxylate] | 0.62
Cc1cc(S(=O)(=O)N[C@H](C)C2CCN(C)CC2)ccc1NC(c1ccccc1)C(F)(F)F (stereo partly drawn) [Compound 300, 3-methyl-N-((R)-1-(1-methylpiperidin-4-yl)ethyl)-4-((2,2,2-trifluoro-1-phenylethyl)amino)benzene-sulfonamide] | 2.3
Cc1ccccc1C(=O)Nc1cc(F)c(S(=O)(=O)N[C@@H](C)C2CCN(C)CC2)cc1Cl [Compound 263A, (S)-N-(2-chloro-5-fluoro-4-(N-(1-(1-methylpiperidin-4-yl)ethyl)sulfamoyl)phenyl)-2-methylbenzamide hydrochloride] | 0.282
Cc1ccccc1C(=O)Nc1ccc(S(=O)(=O)NC(C)CC2CCN(C(=O)OC(C)(C)C)CC2)c2ccccc12 (stereo not shown) [Compound 127, tert-butyl 4-(2-(4-(2-methylbenzamido)naphthalene-1-sulfonamido)propyl) piperidine-1-carboxylate] | 0.575
CCCC(=O)N1CCC(NS(=O)(=O)c2ccc(N)cc2)CC1 [Compound 119, 4-amino-N-(1-butyrylpiperidin-4-yl)benzenesulfonamide] | > 10
Cc1ccccc1C(=O)Nc1cc(Cl)c(S(=O)(=O)N[C@@H](C)C2CCN(C)CC2)cc1Cl [Compound 307, (S)-N-(2,5-dichloro-4-(N-(1-(1-methylpiperidin-4-yl)ethyl)sulfamoyl)phenyl)-2-methylbenzamide hydrochloride] | > 100
CC(NS(=O)(=O)c1ccc2[nH]c(=O)[nH]c2c1)C1CCCCC1 (stereo not shown) [Compound 80, N-(1-cyclohexylethyl)-2-oxo-2,3-dihydro-1H-benzo[d]imidazole-5-sulfonamide] | > 10
Cc1ccccc1C(=O)Nc1ccc(S(=O)(=O)NC(C)CC2CCN(C)CC2)c2ccccc12 (stereo not shown) [Compound 214, 2-methyl-N-(4-(N-(1-(1-methylpiperidin-4-yl)propan-2-yl)sulfamoyl)naphthalen-1-yl)benzamide] | > 10
Cc1cc(S(=O)(=O)N[C@H](C)C2CCNCC2)ccc1N1C(=O)c2ccccc2C1=O [Compound 122A, (R)-4-(1,3-dioxoisoindolin-2-yl)-3-methyl-N-(1-(piperidin-4-yl)ethyl)benzenesulfon-amide hydrochloride] | > 10
CC(=O)N1CC(C)(C)c2ccc(NS(=O)(=O)c3ccc(NC(=O)c4ccccc4C)c4ccccc34)cc21 [Compound 40, N-(4-(N-(1-acetyl-3,3-dimethylindolin-6-yl)sulfamoyl)naphthalen-1-yl)-2-methylbenzamide] | > 10
COC(=O)CN1CCCC(C(C)NS(=O)(=O)c2ccc(NC(=O)c3ccccc3C)c3ccccc23)C1 (single isomer, unassigned) [Compound 19A, methyl 2-(3-(1-(4-(2-methylbenzamido)naph-thalene-1-sulfonamido)ethyl)piper-idin-1-yl)acetate] | 2.8
CC(NS(=O)(=O)c1ccc2[nH]ncc2c1)C1CCCCC1 (stereo not shown) [Compound 79, N-(1-cyclohexylethyl)-1H-indazole-5-sulfonamide] | > 1
COC(=O)C(NS(=O)(=O)c1ccc(NC(=O)c2ccccc2C)c(C)c1)C1CCNCC1 (stereo not shown) [Compound 240A, methyl 2-((3-methyl-4-(2-methylbenzamido)phen-yl)sulfonamido)-2-(piperidin-4-yl)acetate hydrochloride] | > 100
Cc1ccccc1C(=O)Nc1ccc(S(=O)(=O)NC(C)C2CCCCN2C(=O)OC(C)(C)C)c2ccccc12 (single isomer, unassigned) [Compound 68, tert-butyl 2-(1-(4-(2-methylbenzamido)naph-thalene-1-sulfonamido)ethyl)piper-dine-1-carboxylate] | 1.76
CC(NS(=O)(=O)c1ccc2nc(Nc3ccccc3)[nH]c2c1)C1CCCCC1 (stereo not shown) [Compound 145, N-(1-cyclohexylethyl)-2-(phenylamino)-1H-benzo[d]imidazole-6-sulfonamide] | 0.87
Cc1ccccc1C(=O)Nc1ccc(S(=O)(=O)Nc2ccc3c(c2)N(CCN(C)C)CCO3)c2ccccc12 [Compound 23, N-(4-(N-(4-(2-(dimethylamino)ethyl)-3,4-dihydro-2H-benzo[b][1,4]oxazin-6-yl)sulfamoyl)naphthalen-1-yl)-2-methylbenzamide] | > 10
CC(NS(=O)(=O)c1ccc2c(c1)CCC2NC(=O)c1ccccc1)C1CCCCC1 (stereo not shown) [Compound 88, N-(5-(N-(1-cyclohexylethyl)sulfam-oyl)-2,3-dihydro-1H-inden-1-yl)benzamide] | 1.1
CC(NS(=O)(=O)c1ccc2[nH]c(=O)ccc2c1)C1CC2CCC1CC2 (stereo not shown) [Compound 284, N-(1-(bicyclo[2.2.2]octan-2-yl)ethyl)-2-oxo-1,2-dihydroquinoline-6-sulfonamide] | > 100
Cc1cc(S(=O)(=O)NC(C)C(C)(C)CO)ccc1NC(=O)c1ccccc1C (stereo not shown) [Compound 233, 3-((4-(N-(4-hydroxy-3,3-dimethylbutan-2-yl)sulfamoyl)-2-methylphenyl)carbamoyl)-2-methylbenzene-1-ylium] | 0.886

Further lines, results first:

IC50 [µM] | SMILES
0.0016 | Cc1ccccc1C(=O)Nc1ccc(S(=O)(=O)N[C@H](C)C2CCCCC2)c2ccccc12 [Compound 59, (R)-N-(4-(N-(1-cyclohexylethyl)sulfamo-yl)naphthalen-1-yl)-2-methylbenzamide]
0.147 | Cc1ccccc1C(=O)Nc1ccc(S(=O)(=O)NC(C)c2cccc(NC(=O)OC(C)(C)C)c2)c2ccccc12 (stereo not shown) [Compound 71, tert-butyl (3-(1-(4-(2-methylbenzamido)naph-thalene-1-sulfonamido)ethyl)phe-nyl)carbamate]
0.142 | Cc1ccccc1C(=O)Nc1ccc(S(=O)(=O)NC(C)C(C)C)c2ccccc12 (stereo not shown) [Compound 81, 2-methyl-N-(4-(N-(3-methylbutan-2-yl)sulfamoyl)naphthalen-1-yl)benzamide]
0.003 | COc1ccc(C(=O)Nc2ccc(S(=O)(=O)N[C@H](C)C3CCN(C)CC3)cc2C)c(C)c1 [Compound 266, (R)-4-methoxy-2-methyl-N-(2-methyl-4-(N-(1-(1-methylpiperidin-4-yl)ethyl)sulfamoyl)phenyl) benzamide]
0.001 | Cc1cc(S(=O)(=O)N[C@H](C)C2CCN(C)CC2)ccc1NC(=O)c1cc(Cl)ccc1C [Compound 272, (R)-5-chloro-2-methyl-N-(2-methyl-4-(N-(1-(1-methylpiperidin-4-yl)ethyl)sulfamoyl)phenyl) benzamide]
0.021 | CC(=O)N1CCCC(C(C)NS(=O)(=O)c2ccc(NC(=O)c3ccccc3C)c3ccccc23)C1 (single isomer, unassigned) [Compound 18A, N-(4-(N-(1-(1-acetylpiperidin-3-yl)ethyl)sulfamoyl)naph-thalen-1-yl)-2-methylbenzamide]
0.083 | Cc1ccccc1C(=O)Nc1ccc(S(=O)(=O)NC(C)c2cccc(N(C)C)c2)c2ccccc12 (stereo not shown) [Compound 26, N-(4-(N-(1-(3-(dimethylamino)phenyl)ethyl)sulfamoyl)naph-thalen-1-yl)-2-methylbenzamide]
0.015 | Cc1ccccc1C(=O)Nc1cc(C)c(S(=O)(=O)N[C@H](C)C2CCNCC2)cc1F [Compound 257, (R)-N-(2-fluoro-5-methyl-4-(N-(1-(piperidin-4-yl)ethyl)sulfamoyl)phenyl)-2-methylbenzamide hydrochloride]
0.086 | Cc1ccccc1C(=O)Nc1ccc(S(=O)(=O)NC(C)C2CC3CCC2CC3)c(C)c1 (stereo not shown) [Compound 163, N-(4-(N-(1-(bicyclo[2.2.2]octan-2-yl)ethyl)sulfamoyl)-3-methylphenyl)-2-methylbenzamide]
0.079 | Cc1ccccc1C(=O)Nc1ccc(S(=O)(=O)N[C@H](C)C2CCNCC2)c(F)c1Cl [Compound 246A, (R)-N-(2-chloro-3-fluoro-4-(N-(1-(piperidin-4-yl)ethyl)sulfamoyl)phenyl)-2-methylbenzamide hydrochloride]
0.0076 | Cc1ccccc1C(=O)Nc1ccc(S(=O)(=O)NC(C)CC2CCCCC2)c2ccccc12 (stereo not shown) [Compound 75, N-(4-(N-(1-cyclohexylpropan-2-yl)sulfamoyl)naphthalen-1-yl)-2-methylbenzamide]
0.024 | Cc1ccccc1C(=O)Nc1ccc(S(=O)(=O)N[C@H](C)C2CCN(C)CC2)cc1C#N [Compound 221, (R)-N-(2-cyano-4-(N-(1-(1-methylpiperidin-4-yl)ethyl)sulfamoyl)phenyl)-2-methylbenzamide]
0.009 | Cc1ccccc1C(=O)Nc1cc(C)c(S(=O)(=O)N[C@H](C)C2CCN(C)CC2)cc1F [Compound 303, (R)-N-(2-fluoro-5-methyl-4-(N-(1-(1-methylpiperidin-4-yl)ethyl)sulfamoyl)phenyl)-2-methylbenzamide hydrochloride]
0.012 | Cc1ccccc1C(=O)Nc1ccc(S(=O)(=O)N[C@@H](C)C2CCCCC2)c2ccccc12 [Compound 58, (S)-N-(4-(N-(1-cyclohexylethyl)sulfamo-yl)naphthalen-1-yl)-2-methylbenzamide]
0.018 | CCc1cc(S(=O)(=O)N[C@H](C)C2CCNCC2)ccc1NC(=O)c1ccccc1C [Compound 196, (R)-N-(2-ethyl-4-(N-(1-(piperidin-4-yl)ethyl)sulfamoyl)phenyl)-2-methylbenzamide]

Same assay, conditions: read-out: Tango Assay IC50, Inhibition of CCR8 Tango cell in vitro

IC50 [µM] | SMILES
> 10 | Cc1ccccc1C(=O)Nc1ccc(S(=O)(=O)NC(C)C2CCCN(C(=O)[C@H](C)NC(=O)OC(C)(C)C)C2)c2ccccc12 (single isomer, unassigned) [Compound 157C]
